Assay results from the SangsterLogP compilation.

Assay: method code SF-AS, from DOI: 10.1016/0223-5234(89)90056-1
Settings: pH 7.4

Compound | logD
O=[N+]([O-])c1cn(CC(O)CO)c2ncccc12 (stereo not given) | -0.28
CCOC(=O)Cn1cc([N+](=O)[O-])c2cccnc21 | 0.57
O=C(Cn1cc([N+](=O)[O-])c2cccnc21)NCCCN1CCOCC1 | -0.15
CCOC(=O)Cn1cccc2c([N+](=O)[O-])cnc1-2 | -0.12
O=C(Cn1cccc2c([N+](=O)[O-])cnc1-2)NCCCN1CCOCC1 | -0.52
O=[N+]([O-])c1c[nH]c2nccnc12 | -0.23
O=C(Cn1cc([N+](=O)[O-])c2cccnc21)NCCO | -0.19
O=[N+]([O-])c1cn(CCBr)c2ncccc12 | 1.95
Cn1cc([N+](=O)[O-])c2cccnc21 | 0.49
COc1nc2c(c(=O)n(C)c(=O)n2C)n1C | -0.09
